In US20050014280A1, “In vitro method for determining drug permeability using immobilized artificial membrane chromatography” (priority 2003, published 2005):
Where two headings read alike, the source gives them in different places.

How the values were obtained:
[1] = Caco-2 cell permeability assay (published Pm values); type: in vitro ADME; settings: human
Description: Drug permeability assays using Caco-2 cells are currently widely used. Caco-2 cells are human colon adenocarcinoma cells that differentiate in culture to resemble intestinal epithelial cells.
The inventors used 21 reference compounds having a single positive charge at the pH at which the chromatography was performed, each having a published known permeability value, Pm, as determined by a Caco-2 cell assay by the various methods set out in references 1-7, below. The conditions used to determine the Caco-2 Pm values were generally similar in the cited references, although certain conditions varied between assays. Generally, the assays were performed at pH 7.4, with the exception of procaine and sumatriptan, for which the pH was 5.5 and 6.5, respectively. Therefore, for the experiments set out below, the pH of the mobile phase was 7.4 for all compounds except procaine (pH 5.5) and sumatriptan (6.5).

[2] = Immobilized artificial membrane (IAM) HPLC capacity factor; type: physicochemical; settings: 37° C.; for k′IAM (capacity factor): 1.0 ml/min, from average of 3 runs
Description: Sample Preparation: Between 3 and 10 mg of each sample was dissolved in a solution of 10% methanol, 90% water in preparation for injection onto the column.
HPLC Conditions: A Regis IAM.PC.DD2 column (30 mm×4.6 mm, 12 μm) was used, run at 37° C. at a flow rate of 1.0 ml/min. […] Elution of reference compounds was detected by ultraviolet absorbance at 210 nm.
Calculation of k′: Sodium nitrate was injected onto the column and the elution time was measured in order to determine the time for the void volume, t0, to pass through the column. Each reference compound was then injected onto the column and retention time, tR was recorded by detecting elution by measuring UV absorbance at 210 nm. The capacity factor, k′, was calculated by determining the adjusted retention time and dividing by the time for void volume elution, according to the formula k′=(tR−t0)/t0.
Each reference compound was tested three times and an average retention time was used.

[3] = tested on: Caco-2 cells; settings: cited from earlier work
[4] = mobile phase 85% 0.05 M ammonium phosphate pH 7.4 / 15% acetonitrile
[5] = mobile phase buffer pH 7.4 / 15% acetonitrile
[6] = mobile phase buffer pH 6.5 / 15% acetonitrile
[7] = Caco 2 donor pH 7.4, log of Pm in 10^−6 cm/s, read-out: Pm (converted)
[8] = mobile phase buffer pH 5.5 / 15% acetonitrile

Compound	k′IAM (capacity factor) [2, 4]	logk′IAM [2, 5]	Pm ([3]; Caco 2 donor pH 7.4)	Pm of Caco-2 Assay ([3]; published Caco-2 assay, pH 7.4)	other results
Clc1cccc(Cl)c1N=C1NCCN1 [Clonidine]	3.841	0.584	21.8 10^−6 cm/s	21.8 +/− 10^−6 cm/s	Papp ([1]; Caco-2, pH 7.4): 21.8 ×10⁻⁶ cm/s
CNS(=O)(=O)Cc1ccc2[nH]cc(CCN(C)C)c2c1 [Sumatriptan]					Papp ([1]; Caco 2 donor pH 6.5, log of Pm in 10^−6 cm/s, read-out: Pm (converted)): 3 ×10⁻⁶ cm/s; logk′IAM [2, 6]: −0.077; k′IAM (capacity factor) [2, 6]: 0.837; Pm ([3]; Caco 2 donor pH 6.5): 3 10^−6 cm/s; Pm of Caco-2 Assay ([3]; published Caco-2 assay, pH 6.5): 3 10^−6 cm/s
CN/C(=C\[N+](=O)[O-])NCCSCc1ccc(CN(C)C)o1 [Ranitidine]	1.232	0.091	0.49 10^−6 cm/s	0.49 +/− 10^−6 cm/s	Papp [1, 7]: 0.49 ×10⁻⁶ cm/s
COc1ccc([C@@H]2Sc3ccccc3N(CCN(C)C)C(=O)[C@@H]2OC(C)=O)cc1 [Diltiazem]	24.145	1.383			
C=CCc1ccccc1OCC(O)CNC(C)C (stereo not shown) [Alprenolol]	19.190	1.283	25.3 10^−6 cm/s	25.3 +/− 10^−6 cm/s	Papp [1, 7]: 25.3 ×10⁻⁶ cm/s
CN(C)CCCN1c2ccccc2CCc2ccccc21 [Imipramine]	91.053	1.959			
CC(C)NCC(O)COc1cccc2ccccc12 (stereo not shown) [Propranolol]	31.148	1.493	32.5 10^−6 cm/s		Papp ([1]; Caco-2, pH 7.4): 32.5 ×10⁻⁶ cm/s; Pm of Caco-2 Assay ([3]; Caco-2, pH 7.4): 1.94 +/− 10^−6 cm/s
CCN(CC)CCOC(=O)c1ccc(N)cc1 [Procaine]					Papp ([1]; Caco 2 donor pH 5.5, log of Pm in 10^−6 cm/s, read-out: Pm (converted)): 1.94 ×10⁻⁶ cm/s; logk′IAM [2, 8]: −0.368; k′IAM (capacity factor) [2, 8]: 0.428; Pm ([3]; Caco 2 donor pH 5.5): 1.94 10^−6 cm/s; Pm of Caco-2 Assay ([3]; published Caco-2 assay, pH 5.5): 1.94 +/− 10^−6 cm/s
CC(C)(C)NCC(O)c1cc(O)cc(O)c1 (stereo not shown) [Terbutaline]	1.276	0.106	1.4 10^−6 cm/s	1.4 +/− 10^−6 cm/s	Papp [1, 7]: 1.4 ×10⁻⁶ cm/s

Now from value to compound, other results behind:

k′IAM (capacity factor) [2, 4]	logk′IAM [2, 5]	Compound	Pm ([3]; Caco 2 donor pH 7.4)	Pm of Caco-2 Assay ([3]; published Caco-2 assay, pH 7.4)	other results
3.600	0.556	COCCc1ccc(OCC(O)CNC(C)C)cc1 (stereo not shown) [Metoprolol]	23.7 10^−6 cm/s	23.7 +/− 10^−6 cm/s	Papp ([1]; Caco-2, pH 7.4): 23.7 ×10⁻⁶ cm/s
1.717	0.235	CC(C)(C)NCC(O)COc1cccc2c1CC(O)C(O)C2 (stereo not shown) [Nadolol]	3.88 10^−6 cm/s	3.88 +/− 10^−6 cm/s	Papp [1, 7]: 3.88 ×10⁻⁶ cm/s
1.804	0.256	CCN1CCCC1CNC(=O)c1cc(S(N)(=O)=O)ccc1OC (stereo not shown) [Sulpiride]			
4.712	0.673	CC(C)NCC(O)COc1cccc2[nH]ccc12 (stereo not shown) [Pindolol]	16.7 10^−6 cm/s	16.7 +/− 10^−6 cm/s	Papp ([1]; Caco-2, pH 7.4): 16.7 ×10⁻⁶ cm/s
12.940	1.112	CC(CCc1ccccc1)NCC(O)c1ccc(O)c(C(N)=O)c1 (stereo not shown) [Labetalol]			
